This note sets out measurements from article PMC2761383, “Structural and functional characteristics of xenavidin, the first frog avidin from Xenopus tropicalis” (BMC Structural Biology, 2009).

Data set [1] in a line: Fluorescence spectroscopy dissociation analysis of fluorescent Bf560-biotin. The class given is binding. As for the experimental part:
The Quanta Master™ spectrofluorometer (Photon Technology International Inc., Lawrenceville, NJ) with a PTI Fluorescence Master System and the software Felix 32 was used to measure the biotin-binding properties of avidin, xenavidin and streptavidin. The analyses were done in a 50 mM sodium phosphate buffer (pH 7.0) containing 650 mM NaCl at two different temperatures (25 ± 1°C and 50 ± 1°C) by measuring the reversing of quenching of the biotin-coupled fluorescent probe ArcDia™ Bf560 (ArcDia Ltd., Turku, Finland) due to competition with free biotin (100-fold molar excess) as previously described. The spectrum of Bf560-biotin in the presence and absence of avidin is shown in [Additional file 4].

The nature of data set [2]: Optical biosensor analysis (Biacore X) of 2-iminobiotin binding. An excerpt:
The Biacore X optical biosensor instrument was used in the analysis, where the CM5 sensor chip was functionalized with 2-iminobiotin. The functionalization of the chip was done in three phases: First, the carboxymethyl dextrane was activated using a mixture containing 0.2 M EDC (1-ethyl-3-(3-dimethylaminopropyl) carbodiimide hydrochloride) and 0.05 M NHS (N-hydroxysuccinimide) in water. Second, in order to introduce amino groups to the surface, 1 M ethylenediamine (Fluka 03550) in water was applied. Third, a mixture of EDC (0.2 M) and 2-iminobiotin (10 mM) was applied on the surface in 25 mM Na-phosphate pH 6.5. The amount of 2-iminobiotin attached on the surface was 81 response units.
Xenavidin was injected onto the sensor chip in a 50 mM sodium carbonate buffer (pH 11.0) containing 1 M NaCl at 25°C and using a flow rate of 50 μl/min. […] The surface was regenerated between measurement cycles by injecting 20 μl of 0.5 M acetic acid followed by washing with the measurement buffer.
BIAevaluation software v. 4.1 was used for data analysis, and a global fitting method was used to analyze the data set. A period of 20 seconds from the beginning of each injection was included in the association phase fit and the dissociation rate analysis was performed for a 60-second period starting immediately after the end of the injection.
A general note: SPR reads the build-up and loss of mass on a sensor chip optically.

The next data set relates to proteinase K. Description: Limited proteolysis with proteinase K. How it is done:
The stability of xenavidin against the proteinase K enzyme, which is known to cleave the L3,4-loop of avidin [41], was tested. The assay was performed in the presence or absence of biotin as previously described by Laitinen et al.. Protein samples were taken before the enzyme treatment and after adding enzyme at time points 30 min, 1 h, 2 h, 3 h, 18 h and 22 h (data not shown), and the samples were analyzed using SDS-PAGE analysis and Coomassie Brilliant Blue (Serva, Heidelberg, Germany) staining.

Where [3] appears, read: competition with free biotin (100-fold molar excess), pH 7.0.
Setting [4] is: 2-iminobiotin chip, pH 11.0, 1 M NaCl, 25°C.

One may read the Kd as the equilibrium constant for the complex coming apart. Lower therefore signals higher affinity.

For the substance “Avidin: chicken avidin, biotin-binding protein; control sample expressed in E. coli”, the “Dissociation rate constant at 25°C” value in data set [1] (25°C, competition with free biotin (100-fold molar excess), pH 7.0) is reported as 2.3 s^-1 (× 10^-5). Besides, in data set [1] (setting [3]), the “Dissociation rate constant at 50°C” value is given as 32.6 s^-1 (× 10^-5). For the same substance, the “Release after 1 h at 50°C” value in data set [1] came out at 76.5%. In data set [2] (setting [4]), this substance showed a Kd of 102 nM, a kass of 94000 M⁻¹ s⁻¹ and a kdiss of 0.0096 s⁻¹. In addition, in data set [2] (2-iminobiotin functionalized chip, rounded value), binding was put at a Kd of 100 nM. The “stability against proteinase K” value with proteinase K (absence of biotin) was “fragments of 10 kDa and below”. Also, the “stability against proteinase K” value in the data set on proteinase K (presence of biotin) is “protected avidin from proteolytic cleavage”.
For “Streptavidin: bacterial biotin-binding protein from Streptomyces avidinii (Biomol GmbH); control sample”, the “Dissociation rate constant at 50°C” value in data set [1] (setting [3]) is 0.7 s^-1 (× 10^-5). Also, in data set [1], the “Release after 1 h at 50°C” value is listed as 5.1%. In data set [2] (setting [4]), this substance gave a dissociation constant Kd of 85 nM, a kass of 200000 M⁻¹ s⁻¹ and a kdiss of 0.017 s⁻¹.
